Assay results as given in patent US20070093520A1, “Method of treatment of diarrhea-predominant irritable bowel syndrome in a subject” (priority 2005, published 2007).

System: diarrhea-predominant IBS subjects
Experiment: 3007 Study: open-label 52-week safety study, adverse events and withdrawals
[1] = Placebo/Cilansetron 2 mg, N=279
[2] = Placebo/Cilansetron 2 mg, N=279, % of appropriate gender
[3] = Placebo/Cilansetron 2 mg, gender-specific

Cc1nccn1C[C@H]1CCc2c(c3cccc4c3n2CCC4)C1=O [cilansetron, (R)-(−)-4,5,6,8,9,10-hexahydro-10-[(2-methyl-1H-imidazol-1-yl)methyl]-11H-pyrido-[3,2,1-jk]-carbazol-11-one]
TEAE leading to permanent discontinuation: Urticaria NOS [1]: 1 (<1%) n (%) | TEAE leading to permanent discontinuation: Vertigo [1]: 0 n (%) | TEAE leading to permanent discontinuation: Visual Acuity Reduced [1]: 1 (<1%) n (%) | TEAE leading to permanent discontinuation: Vomiting NOS [1]: 0 n (%) | TEAE leading to permanent discontinuation: White Blood Cells Urine Positive [1]: 0 n (%) | Total Number of Subjects with at Least One TEAE Leading to Discontinuation of Study Medication [1]: 50 (18%) n (%) | TEAE leading to permanent discontinuation: Benign Ovarian Tumour* [2]: 1 (<1%) n (%) | TEAE leading to permanent discontinuation: Breast Cancer NOS* [2]: 2 (1%) n (%) | TEAE leading to permanent discontinuation: Ovarian Cancer NOS* [2]: 0 n (%) | TEAE leading to permanent discontinuation: Ovarian Cystadenofibroma* [2]: 1 (<1%) n (%) | TEAE leading to permanent discontinuation: Pregnancy NOS* [2]: 0 n (%) | TEAE: Female Reproductive Tract Infections* [3]: 0 n (%) | TEAE: Prostate Examination Abnormal* [3]: 0 n (%) | TEAE: Smear Cervix Abnormal* [3]: 0 n (%) | TEAE: Vaginal Candidiasis* [3]: 1 (<1%) n (%) | TEAE: Vaginitis Bacterial NOS* [3]: 0 n (%) | TEAE: Vaginitis* [3]: 0 n (%) | TEAE: Vaginosis Fungal NOS* [3]: 1 (<1%) n (%) | potential complications of constipation (Studies 3006 and 3007): two | constipation episodes reported as SAEs (Study 3007): None | constipation that led to dose reduction (Study 3007): seven | deaths (Study 3007): No deaths | longest duration of a constipation episode (Study 3007): 189 days | mean longest duration of a constipation episode (Study 3007): 10.4 days | median longest duration of a constipation episode (Study 3007): four | subjects mildly bothered by the constipation (Study 3007): 8% | subjects moderately bothered by the constipation (Study 3007): 7% | subjects reporting only one constipation episode (Study 3007): 15% | subjects with a constipation episode that lasted longer than 30 days (Study 3007): Thirteen | subjects with an SAE reported as probably related to study medication (colitis ischemic) (Study 3007): One | subjects with treatment-emergent SAEs reported as unlikely related to study medication (Study 3007): five | treatment-emergent SAE: angina pectoris (Study 3007): two | treatment-emergent SAE: breast cancer NOS (Study 3007): two | treatment-emergent SAE: chest pain (Study 3007): two | treatment-emergent SAEs of cardiac disorders (Study 3007): four | treatment-emergent rectal hemorrhage (Study 3007): Eight | overall safety, tolerability and QOL finding (Study 3007, 2 mg TID over 52 weeks): generally safe, well-tolerated, and improved QOL | TEAE incidence: abdominal pain NOS (Study 3007, 18 to 40 years): 8% | TEAE incidence: constipation (Study 3007, 18 to 40 years): 19% | TEAE incidence: flatulence, bloating and distension (Study 3007, 18 to 40 years): 8% | TEAE incidence: headache NOS (Study 3007, 18 to 40 years): 7% | TEAE incidence: lower respiratory tract and lung infections (Study 3007, 18 to 40 years): 4% | TEAE incidence: nausea and vomiting symptoms (Study 3007, 18 to 40 years): 9% | TEAE incidence: sinusitis NOS (Study 3007, 18 to 40 years): 9% | TEAE incidence: abdominal pain NOS (Study 3007, 41 to 64 years): 5% | TEAE incidence: constipation (Study 3007, 41 to 64 years): 23% | TEAE incidence: flatulence, bloating and distension (Study 3007, 41 to 64 years): 5% | TEAE incidence: headache NOS (Study 3007, 41 to 64 years): 6% | TEAE incidence: lower respiratory tract and lung infections (Study 3007, 41 to 64 years): 6% | TEAE incidence: nausea and vomiting symptoms (Study 3007, 41 to 64 years): 6% | TEAE incidence: sinusitis NOS (Study 3007, 41 to 64 years): 7% | TEAE incidence: abdominal pain NOS (Study 3007, 65 years or older): 12% | TEAE incidence: constipation (Study 3007, 65 years or older): 37% | TEAE incidence: flatulence, bloating and distension (Study 3007, 65 years or older): 12% | TEAE incidence: headache NOS (Study 3007, 65 years or older): 1% | TEAE incidence: lower respiratory tract and lung infections (Study 3007, 65 years or older): 1% | TEAE incidence: nausea and vomiting symptoms (Study 3007, 65 years or older): 1% | TEAE incidence: sinusitis NOS (Study 3007, 65 years or older): 3% | SAE: Abdominal Pain Upper (Study 3007, C/C): 1 (<1%) n (%) | SAE: Adenomyosis* (Study 3007, C/C): 1 (<1%) n (%) | SAE: Angina Pectoris (Study 3007, C/C): 2 (<1%) n (%) | SAE: Appendicitis (Study 3007, C/C): 1 (<1%) n (%) | SAE: Asthma NOS (Study 3007, C/C): 0 n (%) | SAE: Benign Ovarian Tumour* (Study 3007, C/C): 0 n (%) | SAE: Bladder Prolapse (Study 3007, C/C): 0 n (%) | SAE: Bone Neoplasm Malignant (Study 3007, C/C): 1 (<1%) n (%) | SAE: Breast Cancer NOS* (Study 3007, C/C): 0 n (%) | SAE: Bronchopneumonia NOS (Study 3007, C/C): 0 n (%) | SAE: Calculus Ureteric (Study 3007, C/C): 1 (<1%) n (%) | SAE: Cardiac Disorders (Study 3007, C/C): 3 (1%) n (%) | SAE: Chest Pain (Study 3007, C/C): 1 (<1%) n (%) | SAE: Cholelithiasis (Study 3007, C/C): 1 (<1%) n (%) | SAE: Colitis Ischaemic (Study 3007, C/C): 0 n (%) | SAE: Depression (Study 3007, C/C): 0 n (%) | SAE: Endometriosis* (Study 3007, C/C): 1 (<1%) n (%) | SAE: Fibroma NOS (Study 3007, C/C): 0 n (%) | SAE: Food Allergy (Study 3007, C/C): 0 n (%) | SAE: Gastritis NOS (Study 3007, C/C): 1 (<1%) n (%) | SAE: Gastroenteritis NOS (Study 3007, C/C): 1 (<1%) n (%) | SAE: Gastrointestinal Disorders (Study 3007, C/C): 3 (1%) n (%) | SAE: General Disorders and Administration Site Conditions (Study 3007, C/C): 1 (<1%) n (%) | SAE: Hallucination NOS (Study 3007, C/C): 0 n (%) | SAE: Hallucination, Auditory (Study 3007, C/C): 0 n (%) | SAE: Heat Exhaustion (Study 3007, C/C): 1 (<1%) n (%)
